Measurements published in patent US9012678B2, “Processes for the preparation of fesoterodine” (Cadila Healthcare Limited, priority 2010, dated 2015).

Assays:
[1] = Stability study for Fesoterodine Fumarate (description, water by KF, related substances by HPLC on storage); format: physicochemical
Protocol: As used herein, the term “stable fesoterodine fumarate” fesoterodine fumarate containing any individual impurities less than 0.15% after exposure to a relative humidity of 60% at 25° for a period of at least three months or after exposure to a relative humidity of 75% at 40° for a period of at least three months
2) High Performance Liquid Chromatography (HPLC) Method for Determination of Impurity X in Fesoterodine Fumarate of formula (1)
• Equipment: Shimadzu LC2010C HPLC system equipped with a wavelength UV-VIS detector or equivalent. • Column: Inertsil ODS-3 (250 mm×4.6 mm, 5 μm), Make: GL Sciences Part No: 5020-01732 • Flow rate: 1.2 mL/minute • Column oven temp: 30° C. • Wavelength: 220 nm • Injection volume: 10 μL • Run time: 60 minutes • Diluent: Premixed buffer and acetonitrile in the volume ratio of 75:25. Preparation of Buffer:
Transfer 1 mL orthophosphoric acid in 1000 mL volumetric flask containing about 500 mL of water and make up the volume with water. Filter through 0.2 μm membrane filter paper.
Weigh accurately and transfer about 25 mg of sample of Fesoterodine Fumarate or Fesoterodine Fumarate (technical) into a 50 mL volumetric flask. Add 5 mL tetrahydrofuran, sonicate to dissolve and make up the volume with diluent. Make fresh two preparations at the time of injection.
Inject sample solutions containing the chromatogram upto the end of gradient. Determine the area of each impurity using suitable integrator.

[2] = Particle Size Distribution (PSD) by laser diffraction in a Malvern Master Sizer; format: physicochemical
Protocol: Particle Size Distribution (PSD)” is determined by laser diffraction in a Malvern Master Sizer by using known method.

[3] = 1 Month 2 to 8° C., PSD: D(90) = 10 microns
[4] = 1 Month 2 to 8° C., PSD: D(90) = 270 microns
[5] = 1 Month 25° C. ± 2° C./RH 60% ± 5%, PSD: D(90) = 10 microns
[6] = 1 Month 25° C. ± 2° C./RH 60% ± 5%, PSD: D(90) = 270 microns
[7] = 1 Month 40° C. ± 2° C./RH 75% ± 5%, PSD: D(90) = 10 microns
[8] = 1 Month 40° C. ± 2° C./RH 75% ± 5%, PSD: D(90) = 270 microns
[9] = 2 Months 2 to 8° C., PSD: D(90) = 10 microns
[10] = 2 Months 2 to 8° C., PSD: D(90) = 270 microns
[11] = 2 Months 25° C. ± 2° C./RH 60% ± 5%, PSD: D(90) = 270 microns
[12] = 2 Months 25° C. ± 2° C./RH, PSD: D(90) = 10 microns
[13] = 2 Months 40° C. ± 2° C./RH 75% ± 5%, PSD: D(90) = 10 microns
[14] = 2 Months 40° C. ± 2° C./RH 75% ± 5%, PSD: D(90) = 270 microns
[15] = 3 Months 2 to 8° C., PSD: D(90) = 10 microns
[16] = 3 Months 2 to 8° C., PSD: D(90) = 270 microns
[17] = 3 Months 25° C. ± 2° C./RH 60% ± 5%, PSD: D(90) = 10 microns
[18] = 3 Months 25° C. ± 2° C./RH 60% ± 5%, PSD: D(90) = 270 microns
[19] = 3 Months 40° C. ± 2° C./RH 75% ± 5%, PSD: D(90) = 10 microns
[20] = 3 Months 40° C. ± 2° C./RH 75% ± 5%, PSD: D(90) = 270 microns
[21] = Initial, PSD: D(90) = 10 microns
[22] = Initial, PSD: D(90) = 270 microns

CC(C)C(=O)Oc1ccc(CO)cc1[C@H](CCN(C(C)C)C(C)C)c1ccccc1.O=C(O)/C=C/C(=O)O [Fesoterodine Fumarate, isobutyric acid 2-[(R)-3-diisopropylammonium-1-phenylpropyl)-4-(hydroxy-methyl)phenyl ester hydrogen fumarate]
0.12 % w/w: Water by KF [1, 7] | Water by KF [1, 13] | Water by KF [1, 19] | Water by KF [1, 20]
0.05 % w/w: Related substance (by HPLC) iii) Oxidized (RRT 1.37) [1, 21]
0.07%: Related substance iv) Any individual impurities [1, 14]
0.15 % w/w: Related substance (by HPLC) iii) Oxidized (RRT 1.37) [1, 5] | Water by KF [1, 5] | Water by KF [1, 6] | Water by KF [1, 11] | Water by KF [1, 12] | Related substance (by HPLC) v) Total impurities [1, 21]
White: Description [1, 3] | Description [1, 4] | Description [1, 5] | Description [1, 6] | Description [1, 7] | Description [1, 8] | Description [1, 9] | Description [1, 10] | Description [1, 11] | Description [1, 12] | Description [1, 13] | Description [1, 14] | Description [1, 15] | Description [1, 16] | Description [1, 17] | Description [1, 18] | Description [1, 19] | Description [1, 20] | Description [1, 21] | Description [1, 22]
0.07 % w/w: Related substance (by HPLC) i) Diol [1, 7] | Related substance (by HPLC) i) Diol [1, 13] | Related substance (by HPLC) i) Diol [1, 19]
0.1%: Related substance i) Diol [1, 22]
0.49 % w/w: Related substance (by HPLC) v) Total impurities [1, 13] | Related substance (by HPLC) v) Total impurities [1, 19]
0.04%: Related substance ii) Diester [1, 8] | Related substance i) Diol [1, 11] | Related substance v) Total impurities [1, 11] | Related substance iv) Any individual impurities [1, 20]
0.16 % w/w: Water by KF [1, 3] | Water by KF [1, 4] | Water by KF [1, 9] | Water by KF [1, 10] | Water by KF [1, 15] | Water by KF [1, 16] | Water by KF [1, 17] | Water by KF [1, 18]
PSD: D(90) = 270 microns: PSD: D(90) ([2]; batch of Example 16 (methyl ethyl ketone/cyclohexane, seeded), D(90) higher than 200 microns)
0.08 % w/w: Related substance (by HPLC) iii) Oxidized (RRT 1.37) [1, 15]
0.21 % w/w: Related substance (by HPLC) v) Total impurities [1, 3] | Related substance (by HPLC) v) Total impurities [1, 9] | Related substance (by HPLC) v) Total impurities [1, 15]
0.05%: Related substance i) Diol [1, 4] | Related substance v) Total impurities [1, 4] | Related substance i) Diol [1, 6] | Related substance v) Total impurities [1, 6] | Related substance ii) Diester [1, 14] | Related substance iii) Oxidized (RRT 1.37) [1, 14] | Related substance ii) Diester [1, 22]
0.06 % w/w: Related substance (by HPLC) i) Diol [1, 3] | Related substance (by HPLC) i) Diol [1, 9] | Related substance (by HPLC) i) Diol [1, 15] | Related substance (by HPLC) i) Diol [1, 21]
0.29 % w/w: Related substance (by HPLC) iii) Oxidized (RRT 1.37) [1, 19]
0.59%: Related substance v) Total impurities [1, 8]
0.02%: Related substance iv) Any individual impurities [1, 22]
0.33 % w/w: Water by KF [1, 22]
0.03 % w/w: Related substance (by HPLC) ii) Diester [1, 3] | Related substance (by HPLC) iv) Any individual impurities [1, 3] | Related substance (by HPLC) iv) Any individual impurities [1, 9] | Related substance (by HPLC) ii) Diester [1, 15] | Related substance (by HPLC) iv) Any individual impurities [1, 15]
0.02 % w/w: Related substance (by HPLC) iv) Any individual impurities [1, 5] | Related substance (by HPLC) iv) Any individual impurities [1, 7] | Related substance (by HPLC) iv) Any individual impurities [1, 12] | Related substance (by HPLC) iv) Any individual impurities [1, 17] | Related substance (by HPLC) ii) Diester [1, 21] | Related substance (by HPLC) iv) Any individual impurities [1, 21]
0.06%: Related substance iii) Oxidized (RRT 1.37) [1, 8] | Related substance iv) Any individual impurities [1, 8] | Related substance i) Diol [1, 10] | Related substance v) Total impurities [1, 10] | Related substance i) Diol [1, 16] | Related substance v) Total impurities [1, 16] | Related substance i) Diol [1, 18] | Related substance v) Total impurities [1, 18] | Related substance ii) Diester [1, 20] | Related substance iii) Oxidized (RRT 1.37) [1, 20] | Related substance iii) Oxidized (RRT 1.37) [1, 22]
0.09 % w/w: Related substance (by HPLC) iii) Oxidized (RRT 1.37) [1, 3] | Related substance (by HPLC) i) Diol [1, 5] | Related substance (by HPLC) iii) Oxidized (RRT 1.37) [1, 9] | Related substance (by HPLC) i) Diol [1, 12] | Related substance (by HPLC) i) Diol [1, 17]
0.2 % w/w: Water by KF [1, 14] | Water by KF [1, 21]
0.28 % w/w: Related substance (by HPLC) v) Total impurities [1, 7]
0.56 % w/w: Water by KF [1, 8]
0.26 % w/w: Related substance (by HPLC) v) Total impurities [1, 5] | Related substance (by HPLC) v) Total impurities [1, 12] | Related substance (by HPLC) v) Total impurities [1, 17]
0.17 % w/w: Related substance (by HPLC) iii) Oxidized (RRT 1.37) [1, 7] | Related substance (by HPLC) iii) Oxidized (RRT 1.37) [1, 12]
significantly slow down the degradation: degradation of fesoterodine under stress conditions ([1]; fesoterodine fumarate with higher particle size)
0.04 % w/w: Related substance (by HPLC) iv) Any individual impurities [1, 13] | Related substance (by HPLC) iv) Any individual impurities [1, 19]
0.33%: Related substance i) Diol [1, 8]
PSD: D(90) = 10 microns: PSD: D(90) ([2]; batch from IPA/diisopropyl ether, D(90) less than 200 microns)
0.6%: Related substance i) Diol [1, 20]
0.22%: Related substance v) Total impurities [1, 14] | Related substance v) Total impurities [1, 20]
0.27 % w/w: Related substance (by HPLC) iii) Oxidized (RRT 1.37) [1, 13]
0.19 % w/w: Related substance (by HPLC) iii) Oxidized (RRT 1.37) [1, 17]
0.21%: Related substance v) Total impurities [1, 22]
0.5%: Related substance i) Diol [1, 14]
BQL: Related substance ii) Diester [1, 4] | Related substance iii) Oxidized (RRT 1.37) [1, 4] | Related substance iv) Any individual impurities [1, 4] | Related substance (by HPLC) ii) Diester [1, 5] | Related substance ii) Diester [1, 6] | Related substance iii) Oxidized (RRT 1.37) [1, 6] | Related substance iv) Any individual impurities [1, 6] | Related substance (by HPLC) ii) Diester [1, 7] | Related substance (by HPLC) ii) Diester [1, 9] | Related substance ii) Diester [1, 10] | Related substance iii) Oxidized (RRT 1.37) [1, 10] | Related substance iv) Any individual impurities [1, 10] | Related substance ii) Diester [1, 11] | Related substance iii) Oxidized (RRT 1.37) [1, 11] | Related substance iv) Any individual impurities [1, 11] | Related substance (by HPLC) ii) Diester [1, 12] | Related substance (by HPLC) ii) Diester [1, 13] | Related substance ii) Diester [1, 16] | Related substance iii) Oxidized (RRT 1.37) [1, 16] | Related substance iv) Any individual impurities [1, 16] | Related substance (by HPLC) ii) Diester [1, 17] | Related substance ii) Diester [1, 18] | Related substance iii) Oxidized (RRT 1.37) [1, 18] | Related substance iv) Any individual impurities [1, 18] | Related substance (by HPLC) ii) Diester [1, 19]
